Reference: article PMC7377239, “Cardiovascular Effects of Polychlorinated Biphenyls and Their Major Metabolites” (Environmental Health Perspectives, 2020)
Where two headings read alike, the source gives them in different places.

Assays:
[1] = system: iCell endothelial cells (human iPSC-derived ECs); assay: High-content imaging cytotoxicity in iCell endothelial cells, 24 h; type: cell-based; settings: Homo sapiens, Endothelial cell, endothelial cells (endo), 24 hr
Summary of the method: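 Human iPSC-derived endothelial cells (passages 1–5) were grown to a fibronectin-coated monolayer, then exposed 24 h at 37 °C with 0.5% DMSO vehicle. Staining was Hoechst 33342, MitoTracker Orange and calcein AM, read by high-content imaging. Point of departure came from 4-parameter logistic fits, with a 1-SD vehicle cutoff and 100 µM as the top concentration.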

[2] = system: iPSC-CMs, iPSC-ECs and HUVECs phenotypes; assay: ToxPi 2.0 integration of POD values and physicochemical descriptors; design: species or system human; settings: ToxPi-scaled (0-1) score; for huvec.cyto.24hr / huvec.mito.24hr / huvec.mitoint.24hr / huvec.nma.24hr / huvec.tc.24hr / huvec.mtl.18hr / huvec.tlps.18hr / huvec.tta.18hr / huvec.ttl.18hr: HUVECs; for huvec.mtl.18hr / huvec.tlps.18hr / huvec.tta.18hr / huvec.ttl.18hr / endo.mtl.18hr / endo.tlps.18hr / endo.tta.18hr / endo.ttl.18hr: tube formation; for cm.amp.avg.90min / cm.amp.cv.90min / cm.bpm.90min / cm.cam.90min / cm.decay.rise.90min / cm.mii.90min / cm.mito.90min / cm.spacing.cv.90min / cm.tc.90min / cm.amp.avg.24hrs / cm.amp.cv.24hrs / cm.bpm.24hrs / cm.cam.24hrs / cm.decay.rise.24hrs / cm.mii.24hrs / cm.mito.24hrs / cm.spacing.cv.24hrs / cm.tc.24hrs: iPSC cardiomyocytes; for endo.cyto.24hr / endo.mito.24hr / endo.mitoint.24hr / endo.nma.24hr / endo.tc.24hr / endo.mtl.18hr / endo.tlps.18hr / endo.tta.18hr / endo.ttl.18hr: iPSC endothelial cells
Summary of the method: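 Phenotypic readouts in iPSC-cardiomyocytes, iPSC-endothelial cells and HUVECs were normalised to 0.5% DMSO vehicle and fitted to a four-parameter logistic model. POD set at one SD cutoff of vehicle means, with 100 μM assigned when no response. PODs and physicochemical descriptors combined in ToxPi 2.0 scores.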

[3] = cyto, read-out: POD endo.cyto.24hr
[4] = mito, read-out: POD endo.mito.24hr
[5] = mitoint, read-out: POD endo.mitoint.24hr
[6] = nma, read-out: POD endo.nma.24hr

Compound: Oc1ccc(-c2cccc(Cl)c2)cc1Cl [4-OH-PCB 11]
- minimal effective concentration [1, 3]: 43.6 µM
- minimal effective concentration [1, 4]: 43.6 µM
- minimal effective concentration [1, 5]: 13 µM
- minimal effective concentration [1, 6]: 9.66 µM
- minimal effective concentration ([1]; tc, read-out: POD endo.tc.24hr): 62.1 µM
- huvec.cyto.24hr [2]: 0.4438
- huvec.mito.24hr [2]: 0.5256
- huvec.mitoint.24hr [2]: 0.5773
- huvec.nma.24hr [2]: 0.5884
- huvec.tc.24hr [2]: 0.4438
- huvec.mtl.18hr [2]: 0.5918
- huvec.tlps.18hr [2]: 0.1971
- huvec.tta.18hr [2]: 0
- huvec.ttl.18hr [2]: 0.4794
- cm.amp.avg.90min [2]: 0.7012
- cm.amp.cv.90min [2]: 0.353
- cm.bpm.90min [2]: 0.1603
- cm.cam.90min [2]: 0.5301
- cm.decay.rise.90min [2]: 0.5246
- cm.mii.90min [2]: 0.417
- cm.mito.90min [2]: 0.3722
- cm.spacing.cv.90min [2]: 0.09289
- cm.tc.90min [2]: 0.417
- cm.amp.avg.24hrs [2]: 0
- cm.amp.cv.24hrs [2]: 0.6637
- cm.bpm.24hrs [2]: 0.3605
- cm.cam.24hrs [2]: 0.33
- cm.decay.rise.24hrs [2]: 0.2928
- cm.mii.24hrs [2]: 0.2219
- cm.mito.24hrs [2]: 0.5458
- cm.spacing.cv.24hrs [2]: 0.4379
- cm.tc.24hrs [2]: 0.5639
- endo.cyto.24hr [2]: 0.145
- endo.mito.24hr [2]: 0.145
- endo.mitoint.24hr [2]: 0.2813
- endo.nma.24hr [2]: 0.4122
- endo.tc.24hr [2]: 0.08397
- endo.mtl.18hr [2]: 0.181
- endo.tlps.18hr [2]: 0.1031
- endo.tta.18hr [2]: 0.1681
- endo.ttl.18hr [2]: 0.1683

Compound: Oc1cc(Cl)c(-c2cc(Cl)ccc2Cl)cc1Cl [4-OH-PCB 52]
- minimal effective concentration [1, 3]: 13.2 µM
- minimal effective concentration [1, 4]: 13.2 µM
- minimal effective concentration [1, 5]: 43.8 µM
- minimal effective concentration [1, 6]: 63.5 µM
- minimal effective concentration ([1]; tc, read-out: POD endo.tc.24hr): 16.6 µM
- huvec.cyto.24hr [2]: 0.4769
- huvec.mito.24hr [2]: 0.5351
- huvec.mitoint.24hr [2]: 0.7457
- huvec.nma.24hr [2]: 0
- huvec.tc.24hr [2]: 0.4769
- huvec.mtl.18hr [2]: 0.5555
- huvec.tlps.18hr [2]: 0.604
- huvec.tta.18hr [2]: 0.1308
- huvec.ttl.18hr [2]: 0.07185
- cm.amp.avg.90min [2]: 0.2901
- cm.amp.cv.90min [2]: 0.2696
- cm.bpm.90min [2]: 1
- cm.cam.90min [2]: 1
- cm.decay.rise.90min [2]: 0.2017
- cm.mii.90min [2]: 0.2919
- cm.mito.90min [2]: 1
- cm.spacing.cv.90min [2]: 0.1401
- cm.tc.90min [2]: 1
- cm.amp.avg.24hrs [2]: 0.1949
- cm.amp.cv.24hrs [2]: 0.09883
- cm.bpm.24hrs [2]: 0.4544
- cm.cam.24hrs [2]: 0.15
- cm.decay.rise.24hrs [2]: 0.2583
- cm.mii.24hrs [2]: 0.1136
- cm.mito.24hrs [2]: 0.2161
- cm.spacing.cv.24hrs [2]: 0.3488
- cm.tc.24hrs [2]: 0.2027
- endo.cyto.24hr [2]: 0.3535
- endo.mito.24hr [2]: 0.3535
- endo.mitoint.24hr [2]: 0.1136
- endo.nma.24hr [2]: 0.0802
- endo.tc.24hr [2]: 0.3161
- endo.mtl.18hr [2]: 0.2459
- endo.tlps.18hr [2]: 0.3982
- endo.tta.18hr [2]: 0.1729
- endo.ttl.18hr [2]: 0.1737

Compound: COc1ccc(-c2cccc(Cl)c2)cc1Cl [4-OMe-PCB 11, 4-methoxy-3,3′-dichlorobiphenyl]
- minimal effective concentration [1, 3]: 100 µM
- minimal effective concentration [1, 4]: 100 µM
- minimal effective concentration [1, 5]: 100 µM
- minimal effective concentration [1, 6]: 100 µM
- minimal effective concentration ([1]; tc, read-out: POD endo.tc.24hr): 100 µM
- huvec.cyto.24hr [2]: 0.2668
- huvec.mito.24hr [2]: 0.3305
- huvec.mitoint.24hr [2]: 0.3626
- huvec.nma.24hr [2]: 0.3507
- huvec.tc.24hr [2]: 0.2668
- huvec.mtl.18hr [2]: 0.5304
- huvec.tlps.18hr [2]: 0.2567
- huvec.tta.18hr [2]: 0
- huvec.ttl.18hr [2]: 0.6633
- cm.amp.avg.90min [2]: 0.6528
- cm.amp.cv.90min [2]: 0.2486
- cm.bpm.90min [2]: 0.4773
- cm.cam.90min [2]: 0.4476
- cm.decay.rise.90min [2]: 0.5303
- cm.mii.90min [2]: 0.1771
- cm.mito.90min [2]: 0.5027
- cm.spacing.cv.90min [2]: 0.1369
- cm.tc.90min [2]: 0.5138
- cm.amp.avg.24hrs [2]: 0.152
- cm.amp.cv.24hrs [2]: 0.06047
- cm.bpm.24hrs [2]: 0.441
- cm.cam.24hrs [2]: 0.1329
- cm.decay.rise.24hrs [2]: 0.2452
- cm.mii.24hrs [2]: 0.5873
- cm.mito.24hrs [2]: 0.2518
- cm.spacing.cv.24hrs [2]: 0.1755
- cm.tc.24hrs [2]: 0.2526
- endo.cyto.24hr [2]: 0
- endo.mito.24hr [2]: 0
- endo.mitoint.24hr [2]: 0
- endo.nma.24hr [2]: 0
- endo.tc.24hr [2]: 0
- endo.mtl.18hr [2]: 0
- endo.tlps.18hr [2]: 0.2016
- endo.tta.18hr [2]: 1
- endo.ttl.18hr [2]: 1
